Source: PMC4708624, “The metabolism and de-bromination of bromotyrosine in vivo” (Free Radical Biology & Medicine, 2016)
Where two headings read alike, the source gives them in different places.

Assays:
[1] = rats; for Molar percentage of the excreted metabolites in 24-h urine (% of infused [D3]bromotyrosine) / Total amounts (nmole) excreted in 24-h urine: intraperitoneal injection of 500 nmole [D3]bromotyrosine
Procedure: ^13C-Labeled internal standard (5 ng) was added to 20 µl of rat urine and diluted to 1 ml of total volume with 0.1 % (v/v) TFA/water (pH 5.0). The samples were extracted using LC18 reverse phase column, as described above. Bromotyrosine and tyrosine were derivatized with ethyl heptafluorobutyrate and silylated with tert-butyldimethylsilyl, as described, [17], [18]. Derivatized samples were dried under nitrogen, and redissolved in 20 µl of n-undecane. Samples were applied to a GC equipped with a 15-m DB-1701 (J&W Scientific, Folsom, CA) capillary column (0.25-mm internal diameter, […]), interfaced with a mass spectrometer (Trio 1000; Fisons Instruments, Beverly, MA). The ion source and interface temperatures were set at 200 and 320 °C, respectively. Samples were analyzed in negative-ion chemical ionization mode with ammonia as the reagent gas, using 1 µl of each sample for injection. The initial column temperature was maintained at 150 °C for 1 min increasing to 300 °C at 20 °C/min. Ions were monitored at 489, 492, and 498 mass units for authentic, [D3] and [^13C9]bromotyrosine, respectively (Table 1). For measurement of tyrosine, samples were monitored at 407, 410 and 415 m/z for authentic, [D3]tyrosine and [^13C9]tyrosine, respectively. Concentrations were calculated by ratio to known ^13C9-labeled internal standards.
^13C-Labeled internal standard (5 ng) was added to 20 µl of rat urine and diluted to 1 ml with 0.1 % (v/v) TFA/water (pH 5.0). The samples were extracted using LC18 reverse-phase column as described above. The samples were derivatized to the pentafluorobenzyl ester by the addition of 20 µl of di-isopropyl ethylamine in acetonitrile and […] of 10 % (v/v) pentafluorobenzyl bromide in acetonitrile for 1 h at room temperature (21–23 °C), dried under nitrogen, and redissolved in […] of n-undecane for GC/MS analysis, [14]. The GC/MS set up was as described above, and ions were monitored at 409, 412, and 417 mass units for authentic, [D3] and [^13C8]bromo-HPA, respectively, with single-ion monitoring (Table 1). For measuring HPA, samples were monitored at 331, 334, and 339 mass units for authentic, [D3] and [^13C8]HPA, respectively. The concentrations were calculated from the known ^13C8-labeled internal standards.
Male Sprague-Dawley rats (n=3 in each group) were given a single intraperitoneal injection of [D3]bromotyrosine (0.50 µmol). The animals were then transferred to standard metabolic cages, and urine samples were collected for 24 h. The levels of deuterated bromotyrosine, tyrosine, bromo-HPA, and HPA were measured in the collected urine samples, as described above.

HepG2 cells = settings: 24 h with 250 nmoles [D3]bromotyrosine (25 µM, 10 ml)
Procedure: HepG2 cells (ECACC, Wiltshire, UK) were maintained in MEM (minimum Eagle's medium) supplemented with 10% fetal calf serum. Monolayer HepG2 cells were plated in 175 cm^3 vented tissue culture flasks until 70% confluent, when they were incubated with [D3]bromotyrosine (final concentration 25 µM). 24 h after incubation with [D3]bromotyrosine, cells were washed two times with PBS and were detached from the flask using a cell scraper. Detached cells were washed and re-suspended in 2 ml of PBS. Cell suspensions were subjected to protein precipitation by adding 1 ml of ice-cold chloroform/methanol (2:1, v/v) solution. After centrifugation (1000×g for 20 min), protein precipitates were washed with methanol and lyophilized under vacuum for assessment of protein-bound [D3]bromotyrosine and [D3]tyrosine as described [9], [17], [18]. […] The samples were then derivatized with ethyl heptafluorobutyrate and silylated with tert-butyldimethylsilyl, and monitored for ion masses of 492, 498, 410, 415 for [D3]bromotyrosine, [^13C9]bromotyrosine, [D3]tyrosine and [^13C9]tyrosine, respectively (Table 1) using negative-ion chemical ionization GC/MS [9], [17], [18]. […] All data are expressed as mean±standard error.

[2] = biological target: T1, Iodotyrosine dehalogenase 1 (DEHAL1) (Homo sapiens, UniProt Q6PHW0); assay: Dehalogenation of halogenated tyrosines as substrates of DEHAL1 (HPLC); type: biochemical; settings: for Formation of mono-halogenated tyrosine as product of de-halogenation of the di-halogenated substrate by DEHAL1: di-iodotyrosine or di-bromotyrosine 1 μM as substrate; for Formation of mono-halogenated tyrosine as product of de-halogenation of the di-halogenated substrate by DEHAL1 / Substrate converted by DEHAL1: 60 min at 37 °C; for Substrate converted by DEHAL1: substrate 1 μM, NADPH 100 μM, dithiothreitol 10 mM
T1 construct: made in house; host or cells: HEK293 cells transfected with DEHAL1 cDNA in pcDNA3.1; used as cell lysate
T1 sequence (Q6PHW0 1-289): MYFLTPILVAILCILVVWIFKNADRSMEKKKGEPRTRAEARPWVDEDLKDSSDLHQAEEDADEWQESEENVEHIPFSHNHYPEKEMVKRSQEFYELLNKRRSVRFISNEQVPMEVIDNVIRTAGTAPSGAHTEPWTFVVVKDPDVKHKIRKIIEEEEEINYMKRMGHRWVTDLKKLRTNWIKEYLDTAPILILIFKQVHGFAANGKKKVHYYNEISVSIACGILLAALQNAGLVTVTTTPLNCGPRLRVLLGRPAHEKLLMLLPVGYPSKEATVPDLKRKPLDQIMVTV
Procedure: (§1) Iodotyrosine dehalogenase 1 (DEHAL1) was obtained from HEK293 cells transfected with DEHAL1 cDNA, using a pcDNA3.1 expression vector [9], [19]. To determine whether bromotyrosine, di-bromotyrosine or bromo-HPA interact with iodotyrosine dehalogenase, deiodinase activity was measured based on radioiodide formation from [125I]iodotyrosine. Incubation mixtures contained [125I]iodotyrosine (∼100,000 cpm mixed with 0.1 μM unlabeled iodotyrosine), DEHAL1 enzyme, and varying amounts of iodotyrosine, bromotyrosine, di-bromotyrosine, bromp-HPA and tyrosine (0.01–100 μM final concentration) in 100 μl of PBS containing NADPH (100 μM), EDTA (2 mM), and dithiothreitol (10 mM), [19]. Mixtures were incubated in duplicate for 60 min at 37 °C, and the reactions were stopped by addition of 0.9 ml of 10% acetic acid on ice. The radioiodide in the mixture was separated from the remaining [125I]iodotyrosine with ion exchange chromatography on Dowex columns. The columns were washed with 10 % acetic acid and eluted with 8 ml of 1 mM ammonia solution. Blank incubations without enzyme were used to correct for non-enzymatic deiodination. To determine whether bromotyrosine or di-bromotyrosine could act as a substrate of DEHAL1, the brominated or iodinated tyrosine derivatives (1 μM) were incubated with DEHAL1 in 100 μl of PBS containing NADPH (100 μM), EDTA (2 mM), and dithiothreitol (10 mM). Mixtures were then incubated in duplicate for 60 min at 37 °C, and the reaction was stopped by addition of 1 ml of 10 % acetic acid on ice. Substrate levels were measured using HPLC as described. Cell lysates from HEK293 cells transfected with empty pcDNA3.1 plasmid were used as control. In experiments where di-bromotyrosine, or di-iodotyrosine was used as substrate, concentrations of mono-bromotyrosine and mono-iodotyrosine were measured as a product of de-halogenation.

[3] = Identification of urinary metabolites of di-bromotyrosine in vivo (full scan GC/MS); design: species or system Sprague-Dawley rats; settings: rats, intraperitoneal 30 µmol, 24 h urine, compared with tyrosine injected animals
Procedure: A similar method used by Ohshima et al. was used for identification of urinary metabolites of di-bromotyrosine. […] Urine was collected in metabolic cages for 24 h. Urine samples were acidified to pH 1.0 with HCl and extracted with an equivalent volume of ethyl acetate.

[4] = biological target: T1, Iodotyrosine dehalogenase 1 (DEHAL1); assay: Inhibition of DEHAL1 deiodinase activity (radioiodide formation from [125I]iodotyrosine); type: biochemical; settings: 0.01–100 μM, 60 min at 37 °C, NADPH, dithiothreitol
Procedure: as §1

[5] = biological target: T1, Iodotyrosine dehalogenase 1 (DEHAL1); design: method as in PMID 17686770; settings: previous report ref 9; cited from earlier work
[6] = design: method as in PMID 17686770; settings: deuterium-labeled metabolites after infusion of deuterium-labeled chlorotyrosine ref 9; cited from earlier work
[7] = Incubation of bromo-HPA with rat liver homogenates; type: in vitro ADME; settings: data not shown
[8] = Endogenous bromination of HPA: urine monitoring after intraperitoneal [D6]HPA; type: in vivo; settings: healthy rats, intraperitoneal injection of [D6]HPA, data not shown
From the text: It is not known, whether or not, bromo-HPA is exclusively derived from the metabolism of bromotyrosine. […] Such reaction may occur for bromotyrosine as well, and needs to be explored in future investigations. Likewise, we previously reported that nitro-HPA is not exclusively derived from nitrotyrosine metabolism, and it is mainly formed by nitration of HPA in both humans and rats, [29]. To determine whether or not bromo-HPA could be formed by endogenous bromination of HPA in healthy rats, deuterium-labeled HPA ([D6]HPA) was synthesized and injected into healthy rats as described. The formation of deuterated bromo-HPA was then monitored in urine samples.

[D3]tyrosine
Molar percentage of the excreted metabolites in 24-h urine (% of infused [D3]bromotyrosine) [1]: Undetectable
Total amounts (nmole) excreted in 24-h urine [1]: Undetectable
[D3]tyrosine detectable in cellular proteins (HepG2 cells): 6.68 ± 0.52 nmol

N[C@@H](Cc1ccc(O)c(I)c1)C(=O)O [iodotyrosine, reference compound]
Formation of mono-halogenated tyrosine as product of de-halogenation of the di-halogenated substrate by DEHAL1 [2]: 7%
Substrate converted by DEHAL1 [2]: 83%

N[C@@H](Cc1cc(Br)c(O)c(Br)c1)C(=O)O [di-bromotyrosine, 3,5-di-bromotyrosine]
Urinary metabolites identified [3]: di-bromo-HPA and mono-bromo-HPA
Inhibition of DEHAL1-induced deiodinase activity [4]: could inhibit DEHAL1-induced deiodinase activity in a concentration-dependent manner
Substrate converted by DEHAL1 [2]: 4%

N[C@@H](Cc1ccc(O)c(Cl)c1)C(=O)O [chlorotyrosine, 3-chlorotyrosine]
De-chlorination by DEHAL1 in vitro [5]: unable to show a significant de-chlorination

O=C(O)Cc1ccc(O)cc1 [HPA, 4-hydroxyphenylacetic acid]
Urinary excretion rate relative to un-metabolized bromotyrosine ([1]; deuterium-labeled metabolites, 500 nmole [D3]bromotyrosine): 10.7 fold
Urinary excretion rate relative to un-metabolized chlorotyrosine [6]: 35.6 fold

O=C(O)Cc1ccc(O)c(Cl)c1 [chloro-HPA, 3-chloro-4-hydroxyphenylacetic acid]
Urinary excretion rate relative to un-metabolized chlorotyrosine [6]: 3.3 fold

N[C@@H](Cc1ccc(O)cc1)C(=O)O [tyrosine]
Inhibition of DEHAL1-induced deiodinase activity [4]: Neither tyrosine nor bromo-HPA showed the ability to inhibit deiodination

N[C@@H](Cc1ccc(O)c(Br)c1)C(=O)O [bromotyrosine, 3-bromotyrosine]
Inhibition of DEHAL1-induced deiodinase activity [4]: could inhibit DEHAL1-induced deiodinase activity in a concentration-dependent manner
Formation of mono-halogenated tyrosine as product of de-halogenation of the di-halogenated substrate by DEHAL1 [2]: 3%
Substrate converted by DEHAL1 [2]: 18%

O=C(O)Cc1ccc(O)c(Br)c1 [bromo-HPA, 3-bromo-4-hydroxyphenylacetic acid]
Formation of de-brominated products on incubation with rat liver homogenates [7]: not associated with formation of de-brominated products
Inhibition of DEHAL1-induced deiodinase activity [4]: Neither tyrosine nor bromo-HPA showed the ability to inhibit deiodination
Formation of de-brominated products on incubation with DEHAL1 ([2]; data not shown): not associated with formation of de-brominated products

deuterated 3-bromo-4-hydroxyphenylacetic acid [[D3]Bromo-HPA]
Molar percentage of the excreted metabolites in 24-h urine (% of infused [D3]bromotyrosine) [1]: 0.43±0.04%
Total amounts (nmole) excreted in 24-h urine [1]: 2.15 ± 0.21 nmol
Molar percentage of the excreted metabolites in 24-h urine (% of infused [D3]bromotyrosine) ([1]; listed as [D3]bromo-HPA): 0.43±0.04%

[D5]bromo-HPA
Detection of deuterated bromo-HPA in urine [8]: unable to detect

N[C@@H](Cc1cc(I)c(O)c(I)c1)C(=O)O [di-iodotyrosine, reference compound]
Substrate converted by DEHAL1 [2]: 70%

[2H]c1cc(O)c([2H])c([2H])c1CC(=O)O [[D3]HPA, [D3]4-hydroxyphenylacetic acid]
Molar percentage of the excreted metabolites in 24-h urine (% of infused [D3]bromotyrosine) [1]: 1.33±0.26%
Total amounts (nmole) excreted in 24-h urine [1]: 6.66 ± 1.33 nmol
Molar percentage of the excreted metabolites in 24-h urine (% of infused [D3]bromotyrosine) ([1]; listed as [D3]4-hydroxyphenylacetic acid): ~ 1.3%
